Measured values taken from BindingDB's records for doi:10.7270/Q23R0R98 (Johns Hopkins Ion Channel Center, 2010).
pIC50: −log10 of the molar value. Structures can show the parent of a compound that is named as a salt.

What follows are molecules tested against T1, Inward rectifier potassium channel 2 (Mus musculus, UniProt P35561) (assay: inhibitors of Kir2.1 potassium channel – mouse Kir2.1, dose response (AID 2594)).
T1 sequence (P35561 whole entry): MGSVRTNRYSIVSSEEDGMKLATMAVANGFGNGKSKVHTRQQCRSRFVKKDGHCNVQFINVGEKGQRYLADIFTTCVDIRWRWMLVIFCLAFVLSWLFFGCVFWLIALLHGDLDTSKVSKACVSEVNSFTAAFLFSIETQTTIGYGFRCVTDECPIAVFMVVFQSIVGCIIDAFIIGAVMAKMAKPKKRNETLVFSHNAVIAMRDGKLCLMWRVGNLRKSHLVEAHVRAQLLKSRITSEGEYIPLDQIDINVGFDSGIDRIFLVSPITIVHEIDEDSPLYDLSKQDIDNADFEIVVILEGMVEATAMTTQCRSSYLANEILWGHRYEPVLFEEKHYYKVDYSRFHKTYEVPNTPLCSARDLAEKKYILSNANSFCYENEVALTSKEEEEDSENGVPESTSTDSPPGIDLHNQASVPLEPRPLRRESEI

| Structure (SMILES) | pIC50 |
| --- | --- |
| COc1ccc(CNCc2cccc3ccccc23)cc1 | 4.57 |
| CC(NS(=O)(=O)c1ccc(Br)s1)c1ccccc1 (stereo not given) | 4.70 |
| Cc1ccc(OCC(O)CNCc2ccc(F)cc2)cc1 (stereo not given) [1-[(4-fluorophenyl)methylamino]-3-(4-methylphenoxy)propan-2-ol] | 4.61 |
| Cc1ccc(Nc2cc(C)nc3c(C)cccc23)cc1 [2,8-dimethyl-N-(4-methylphenyl)quinolin-4-amine] | 4.37 |
| Fc1ccc(N2CCN(Cc3c[nH]c4ccccc34)CC2)cc1 [3-[[4-(4-fluorophenyl)piperazin-1-yl]methyl]-1H-indole] | 4.51 |
| CCn1c(COc2ccccc2)nnc1SCc1ccc(C#N)cc1 [4-[[4-ethyl-5-(phenoxymethyl)-1,2,4-triazol-3-yl]sulfanylmethyl]benzonitrile] | 4.32 |
| Cc1ccc(O)c(CNCCNCc2cc(C)ccc2O)c1 [4-methyl-2-[[2-[(5-methyl-2-oxidanyl-phenyl)methylamino]ethylamino]methyl]phenol] | 4.67 |
| COc1ccc(CNC/C=C/c2ccccc2)cc1 [(E)-N-[(4-methoxyphenyl)methyl]-3-phenyl-prop-2-en-1-amine;hydrochloride] | 4.65 |
| Cc1ccc2[nH]c(NCc3ccccc3)nc2c1 [MLS000081058] | 4.48 |
| c1ccc(COc2ccc(OCCCNC3CCCC3)cc2)cc1 [MLS000535503] | 4.47 |
| CC(C)(C)OC(=O)NCCc1nnc(SCc2ccc(Cl)cc2)o1 [MLS000557943] | 4.80 |
| CSc1ccc(S(=O)(=O)NC(C)c2ccccc2)cc1 (stereo not given) [MLS000693878] | 4.37 |
| CCCN1CCC(NC23CC4CC(CC(C4)C2)C3)CC1 [N-(1-adamantyl)-1-propyl-4-piperidinamine] | 4.27 |
| Clc1ccc(CNC2CCN(Cc3ccccc3)CC2)cc1 [N-[(4-chlorophenyl)methyl]-1-(phenylmethyl)-4-piperidinamine] | 4.42 |
| COc1ccc(Nc2ccnc3ccccc23)cc1 [SMR000033695] | 4.47 |
| CCn1c(Sc2ccc(N)cc2Cl)nc2ccccc21 [SMR000078102] | 4.45 |
| O=S(=O)(c1ccc(F)cc1)N1CCCc2ccccc21 [SMR000514216] | 4.23 |
| CC(NS(=O)(=O)c1ccc(Br)cc1)c1ccccc1 (stereo not given) [SMR000516693] | 4.59 |
| COc1ccc(CNCCc2ccc3c(c2)OCO3)cc1Br [SMR000555601] | 4.46 |
| CC(O)CNCCCOc1cccc(Oc2ccccc2)c1 (stereo not given) [oxalic acid;1-[3-(3-phenoxyphenoxy)propylamino]-2-propanol] | 4.63 |
